Some test systems named below: OVCAR-5; Malme-3M; SF-539; SF-295; 786-0; SK-MEL-5; HT-29; MDA-MB-435; LOX IMVI; TK-10; HCC 2998; SN12C; EKVX; NCI-H23; RXF 393; SK-MEL-28; A549; OVCAR-8; HCT-116; NCI-H226.
Holding throughout (experiment): NCI anticancer screen, dose series, 48 h

The source of these data is ChEMBL document CHEMBL1201862, “PubChem BioAssay data set” (2004).

Molecules are shown by their SMILES.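 In this assay, cells in 96-well plates receive the compound at five concentrations for 48 hours. Endpoints are linearly interpolated between the surrounding concentrations. Here, GI50 denotes the concentration required for 50% inhibition of growth.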 Activity calls are given as the source filed them. Cut-off read from the data, not from the text of the source: active = GI50 up to about 1.1 µM and inactive = higher.

Take `CCN(CC)CC[n+]1ccc2c(C)c3[nH]c4ccccc4c3c(C)c2c1`: the GI50 was 1.61 µM (inactive) in the assay on OVCAR-5; 0.662 µM (active) with Malme-3M; 0.612 µM (active) with SF-539; 0.789 µM (active) in the assay with SF-295; 0.56 µM (active) in the assay with 786-0; 0.401 µM (active) in the assay with SK-MEL-5. Moreover, the GI50 is 0.684 µM (active) with HT-29; 0.635 µM (active) with MDA-MB-435; 0.689 µM (active) in the assay on LOX IMVI; 4.41 µM (inactive) in the assay with TK-10; 0.468 µM (active) with HCC 2998; 0.285 µM (active) in the assay with SN12C. Also, the GI50 in the assay on EKVX was 1.02 µM (active); in the assay on NCI-H23 it was 0.546 µM (active); in the assay with RXF 393, 1.55 µM (inactive); in the assay on SK-MEL-28 it was 0.533 µM (active).
For `CCOC(=O)C(NC(=O)OC(C)(C)C)C(=O)OCC`, the GI50 with OVCAR-5 was > 100 µM (inactive); in the assay with 786-0, > 100 µM (inactive); in the assay with SK-MEL-5 it was 64.1 µM (inactive); in the assay on HT-29 it was > 100 µM (inactive); in the assay with MDA-MB-435, > 100 µM (inactive); with TK-10 it was > 100 µM (inactive). The GI50 in the assay on HCC 2998, in the assay with SN12C, with A549, in the assay on EKVX, with OVCAR-8 and in the assay with NCI-H23 was > 100 µM (inactive) in each case. The GI50 in the assay with RXF 393, with SK-MEL-28 and in the assay with HCT-116 was > 100 µM (inactive) each time.
Regarding `c1ncn(C23C4C5C6C4C2C6C53)n1` (stereo not given), the GI50 in the assay on OVCAR-5, in the assay with SF-539, in the assay on SF-295, with 786-0, with SK-MEL-5 and in the assay on HT-29 was > 100 µM (inactive) in each case. Moreover, the GI50 with MDA-MB-435, in the assay on LOX IMVI, in the assay on TK-10, with HCC 2998, in the assay with SN12C and in the assay on A549 was > 100 µM (inactive) throughout. The GI50 in the assay on EKVX, in the assay with OVCAR-8, with NCI-H226, in the assay on NCI-H23, with SK-MEL-28 and in the assay on HCT-116 was > 100 µM (inactive) each time.
As to `O=C1N[C@H]2c3c(Cl)sc(Cl)c3/C(=N/O)[C@H]2O1`, the GI50 was > 100 µM (inactive) in the assay on OVCAR-5; > 100 µM (inactive) with Malme-3M; 88.1 µM (inactive) in the assay with SF-539; > 100 µM (inactive) in the assay on 786-0; > 100 µM (inactive) with SK-MEL-5; > 100 µM (inactive) with HT-29. The GI50 in the assay with MDA-MB-435, in the assay with TK-10, in the assay with HCC 2998, in the assay on SN12C, in the assay with A549 and in the assay on EKVX was > 100 µM (inactive) in each case. Besides, the GI50 in the assay on OVCAR-8 was > 100 µM (inactive); in the assay with RXF 393 it was > 100 µM (inactive); in the assay on SK-MEL-28 it was > 100 µM (inactive); in the assay on HCT-116, 80.7 µM (inactive).
For `COc1ccc(N/N=C2\CCOc3ccc(C)cc3C2=O)cc1`, the GI50 in the assay on OVCAR-5 is 91.4 µM (inactive); with Malme-3M, 11.1 µM (inactive); in the assay with SF-539, 40.6 µM (inactive); in the assay on SF-295 it was 10.3 µM (inactive); with 786-0, 17.4 µM (inactive); in the assay with SK-MEL-5, 19.1 µM (inactive). In addition, the GI50 in the assay with HT-29 is 7.8 µM (inactive); in the assay with MDA-MB-435, 3.18 µM (inactive); in the assay with LOX IMVI it was 12.4 µM (inactive); in the assay with TK-10 it was 55.6 µM (inactive); in the assay on HCC 2998, 13.6 µM (inactive); in the assay with SN12C it was 40.6 µM (inactive). The GI50 is 21.3 µM (inactive) in the assay with A549; 21.3 µM (inactive) in the assay with EKVX; 31.8 µM (inactive) in the assay on OVCAR-8; 27.4 µM (inactive) with NCI-H226; 32.3 µM (inactive) in the assay on SK-MEL-28; 19.5 µM (inactive) with HCT-116.
Consider `C/C(=C/CC[C@](C)(OC1OC(CO)C(O)C(O)C1O)[C@H]1CC[C@]2(C)[C@@H]1CC[C@@H]1[C@@]3(C)CC[C@H](O)C(C)(C)[C@@H]3C[C@H](O)[C@]12C)CO` (stereo not given in full), for which the GI50 was 49.8 µM (inactive) in the assay with OVCAR-5; 21.6 µM (inactive) in the assay with Malme-3M; 10.4 µM (inactive) in the assay on SF-539; 14.8 µM (inactive) in the assay with SF-295; 12.6 µM (inactive) in the assay on 786-0; 18.2 µM (inactive) in the assay with SK-MEL-5. Moreover, the GI50 is 11.6 µM (inactive) with HT-29; 36 µM (inactive) in the assay on MDA-MB-435; 18.1 µM (inactive) with LOX IMVI; 55.7 µM (inactive) in the assay on TK-10; 22 µM (inactive) in the assay with SN12C; 39.5 µM (inactive) in the assay on A549. The GI50 in the assay on EKVX is 60.8 µM (inactive); with OVCAR-8 it was 33.3 µM (inactive); with NCI-H226 it was 26.8 µM (inactive); in the assay with NCI-H23, 45.1 µM (inactive); with RXF 393, 3.46 µM (inactive); in the assay on SK-MEL-28, 18.2 µM (inactive). The GI50 with HCT-116 was 18.2 µM (inactive).
With `CC(=O)NC1C(OCc2ccccc2)OC(CO)C(O)C1OC(C)C(=O)NC(C(=O)N[C@@H](CCC(=O)NCCNCCNc1c2ccccc2nc2cccc([N+](=O)[O-])c12)C(N)=O)C(C)C` (stereo not given in full), the GI50 was 36.2 µM (inactive) with Malme-3M; 14.9 µM (inactive) in the assay on SF-539; 48.5 µM (inactive) with SF-295; 22.4 µM (inactive) in the assay on 786-0; 14.1 µM (inactive) with MDA-MB-435; 29.2 µM (inactive) in the assay with LOX IMVI. Moreover, the GI50 is 37.8 µM (inactive) in the assay on TK-10; 21 µM (inactive) with HCC 2998; 20.9 µM (inactive) in the assay with SN12C; 14.8 µM (inactive) with A549; 19.6 µM (inactive) with OVCAR-8; > 100 µM (inactive) in the assay on NCI-H226. The GI50 was 34 µM (inactive) with NCI-H23, 41.4 µM (inactive) with SK-MEL-28 and 19.9 µM (inactive) in the assay with HCT-116.
On to `CC(=O)OCCn1cnc2c(NCC=C(C)C)ncnc21`, for which the GI50 with OVCAR-5, with Malme-3M, with SF-539, in the assay on SF-295, in the assay with 786-0 and in the assay on SK-MEL-5 was > 100 µM (inactive) throughout. Further, the GI50 in the assay on HT-29, in the assay on MDA-MB-435, in the assay on LOX IMVI, in the assay on TK-10, in the assay with SN12C and in the assay with A549 was > 100 µM (inactive) throughout. Besides, the GI50 in the assay on EKVX, with OVCAR-8, in the assay on NCI-H226, in the assay with NCI-H23, in the assay on RXF 393 and with SK-MEL-28 was > 100 µM (inactive) in each case. Also, in the assay with HCT-116, the GI50 is > 100 µM (inactive).
Regarding `C/C(=N\n1c(Cc2ccccc2)n[nH]c1=O)c1ccc([N+](=O)[O-])cc1`, the GI50 in the assay on OVCAR-5 is > 100 µM (inactive); in the assay on Malme-3M, > 100 µM (inactive); in the assay on SF-295 it was 91.8 µM (inactive); in the assay with 786-0, > 100 µM (inactive); with SK-MEL-5, > 100 µM (inactive); in the assay with HT-29, > 100 µM (inactive). The GI50 was > 100 µM (inactive) with MDA-MB-435; > 100 µM (inactive) with LOX IMVI; > 100 µM (inactive) in the assay with TK-10; > 100 µM (inactive) in the assay with SN12C; > 100 µM (inactive) in the assay on A549; 74.5 µM (inactive) with EKVX. Also, the GI50 in the assay with OVCAR-8 is 69.7 µM (inactive); in the assay with NCI-H226 it was > 100 µM (inactive); in the assay with NCI-H23, > 100 µM (inactive); in the assay on RXF 393 it was 16.6 µM (inactive); with SK-MEL-28, > 100 µM (inactive); in the assay on HCT-116, > 100 µM (inactive).
For `CN(CCN(C)C(=S)NN)C(=S)NN`, the GI50 in the assay on OVCAR-5, in the assay on Malme-3M, with SF-295, in the assay with 786-0, in the assay on SK-MEL-5 and in the assay on HT-29 was > 100 µM (inactive) each time. Moreover, the GI50 in the assay on MDA-MB-435, in the assay with LOX IMVI, in the assay with HCC 2998, in the assay on SN12C, in the assay with A549 and in the assay with EKVX was > 100 µM (inactive) in each case. Moreover, the GI50 in the assay with NCI-H23, in the assay with SK-MEL-28 and with HCT-116 was > 100 µM (inactive) throughout.
With `Cc1cn(CCCCC2=NCCCN2)c(=O)[nH]c1=O`, the GI50 in the assay on OVCAR-5 was > 30.3 µM (inactive); in the assay with SF-295, 46.5 µM (inactive); in the assay with 786-0, > 23.9 µM (inactive); in the assay on SK-MEL-5, > 28.1 µM (inactive); in the assay on MDA-MB-435 it was > 26.7 µM (inactive); in the assay on LOX IMVI, > 25.6 µM (inactive). Further, the GI50 in the assay on TK-10 is 9.18 µM (inactive); in the assay on HCC 2998, > 26.3 µM (inactive); with SN12C, > 100 µM (inactive); in the assay on A549, > 35.1 µM (inactive); in the assay on EKVX, > 29.9 µM (inactive); in the assay with NCI-H226, > 57.7 µM (inactive). The GI50 in the assay on NCI-H23 is > 31.2 µM (inactive); in the assay on RXF 393, 25.8 µM (inactive); in the assay on SK-MEL-28, > 26.2 µM (inactive); with HCT-116, > 23.3 µM (inactive).
